# Assay results reported in patent US10125148B2, “Pyrazolopyrimidine macrocycles as inhibitors of human immunodeficiency virus replication” (priority 2014, dated 2018).
# Test system: NL-RLuc virus
# Assay: Inhibition of HIV replication (NL-RLuc luciferase reporter virus in MT-2 cells)
# Format: cell-based
# Conditions: Human immunodeficiency virus 1, MT2, 120 h
row,SMILES,EC50 [nM]
1,"Cc1ccc2c(c1)-c1cccc(c1)-c1cc3nc(C)c([C@H](OC(C)(C)C)C(=O)O)c(n3n1)N1CCC(C)(CCC=CCC(C)O2)CC1 (stereo in doubt) [Example 20, (2S)-2-(tert-Butoxy)-2-[(22S)-4,17,22,28-tetramethyl-21-oxa-1,5,7,8-tetraazahexacyclo[26.2.2.1^6,9.1^10,14.0^2,7.0^15,20]tetratriaconta-2,4,6(34),8,10(33),11,13,15(20),16,18,24-undecaen-3-yl]acetic acid]",133
2,"Cc1nc2cc3nn2c(c1[C@H](OC(C)(C)C)C(=O)O)N1CCC(C)(CCC=CCC(C)Oc2ccc(C#N)cc2-c2cccc-3c2)CC1 (stereo in doubt) [Example 22, (2S)-2-(tert-Butoxy)-2-[(22S)-17-cyano-4,22,28-trimethyl-21-oxa-1,5,7,8-tetraazahexacyclo[26.2.2.1^6,9.1^10,14.0^2,7.0^15,20]tetratriaconta-2,4,6(34),8,10(33),11,13,15(20),16,18,24-undecaen-3-yl]acetic acid]",13
3,"Cc1nc2cc3nn2c(c1[C@H](OC(C)(C)C)C(=O)O)N1CCC(C)(CCCCCC(C)Oc2ccc(C#N)cc2-c2cccc-3c2)CC1 (stereo in doubt) [Example 23, (2S)-2-(tert-Butoxy)-2-[(22S)-17-cyano-4,22,28-trimethyl-21-oxa-1,5,7,8-tetraazahexacyclo[26.2.2.1^6,9.1^10,14.0^2,7.0^15,20]tetratriaconta-2,4,6(34),8,10(33),11,13,15(20),16,18-decaen-3-yl]acetic acid]",24
4,"Cc1nc2cc3nn2c(c1[C@H](OC(C)(C)C)C(=O)O)N1CCC(C)(CCCCCC(C)Oc2ccc(C(N)=O)cc2-c2cccc-3c2)CC1 (stereo in doubt) [Example 24, (2S)-2-(tert-butoxy)-2-[(22S)-17-carbamoyl-4,22,28-trimethyl-21-oxa-1,5,7,8-tetraazahexacyclo[26.2.2.1^6,9.1^10,14.0^2,7.0^15,20]tetratriaconta-2,4,6(34),8,10(33),11,13,15(20),16,18-decaen-3-yl]acetic acid]",4
5,"Cc1nc2cc3nn2c(c1[C@H](OC(C)(C)C)C(=O)O)N1CCC(C)(CC1)OCCCC[C@H](C)Oc1ccc(C(F)(F)F)cc1-c1cccc-3c1 [Example 1, (2S)-2-(tert-Butoxy)-2-[(22S)-4,22,28-trimethyl-17-(trifluoromethyl)-21,27-dioxa-1,5,7,8-tetraazahexacyclo[26.2.2.1^6,9.1^10,14.0^2,7.0^15,20]tetratriaconta-2,4,6(34),8,10(33),11,13,15(20),16,18-decaen-3-yl]acetic acid]",39
6,"Cc1nc2cc3nn2c(c1[C@H](OC(C)(C)C)C(=O)O)N1CCC(C)(CC1)OCCCC[C@H](C)Oc1cc(F)c(F)cc1-c1cccc-3c1 [Example 2, (2S)-2-(tert-Butoxy)-2-[(22S)-17,18-difluoro-4,22,28-trimethyl-21,27-dioxa-1,5,7,8-tetraazahexacyclo[26.2.2.1^6,9.1^10,14.0^2,7.0^15,20]tetratriaconta-2,4,6(34),8,10(33),11,13,15(20),16,18-decaen-3-yl]acetic acid]",26
7,"Cc1nc2cc3nn2c(c1[C@H](OC(C)(C)C)C(=O)O)N1CCC(C)(CC1)OCCCC[C@H](C)Oc1cc(F)cc(F)c1-c1cccc-3c1 [Example 3, (2S)-2-(tert-Butoxy)-2-[(22S)-16,18-difluoro-4,22,28-trimethyl-21,27-dioxa-1,5,7,8-tetraazahexacyclo[26.2.2.1^6,9.1^10,14.0^2,7.0^15,20]tetratriaconta-2,4,6(34),8,10(33),11,13,15(20),16,18-decaen-3-yl]acetic acid]",26
8,"Cc1cc(F)c2c(c1)O[C@@H](C)C/C=C/COC1(C)CCN(CC1)c1c([C@H](OC(C)(C)C)C(=O)O)c(C)nc3cc(nn13)-c1cccc-2c1 [Example 4, (2S)-2-(tert-Butoxy)-2-[(22S,24E)-16-fluoro-4,18,22,28-tetramethyl-21,27-dioxa-1,5,7,8-tetraazahexacyclo[26.2.2.1^6,9.1^10,14.0^2,7.0^15,20]tetratriaconta-2,4,6(34),8,10(33),11,13,15(20),16,18,24-undecaen-3-yl]acetic acid]",23
9,"Cc1cc(F)c2c(c1)O[C@@H](C)CCCCOC1(C)CCN(CC1)c1c([C@H](OC(C)(C)C)C(=O)O)c(C)nc3cc(nn13)-c1cccc-2c1 [Example 5, (2S)-2-(tert-Butoxy)-2-[(22S)-16-fluoro-4,18,22,28-tetramethyl-21,27-dioxa-1,5,7,8-tetraazahexacyclo[26.2.2.1^6,9.1^10,14.0^2,7.0^15,20]tetratriaconta-2,4,6(34),8,10(33),11,13,15(20),16,18-decaen-3-yl]acetic acid]",22
10,"CCc1ccc2c(c1)-c1cccc(c1)-c1cc3nc(C)c([C@H](OC(C)(C)C)C(=O)O)c(n3n1)N1CCC(C)(CC1)OC/C=C/C[C@H](C)O2 [Example 6, (2S)-2-(tert-Butoxy)-2-[(22S)-17-ethyl-4,22,28-trimethyl-21,27-dioxa-1,5,7,8-tetraazahexacyclo[26.2.2.1^6,9.1^10,14.0^2,7.0^15,20]tetratriaconta-2,4,6(34),8,10(33),11,13,15(20),16,18,24-undecaen-3-yl]acetic acid]",31
11,"CCc1ccc2c(c1)-c1cccc(c1)-c1cc3nc(C)c([C@H](OC(C)(C)C)C(=O)O)c(n3n1)N1CCC(C)(CC1)OCCCC[C@H](C)O2 [Example 7, (2S)-2-(tert-Butoxy)-2-[(22S)-17-ethyl-4,22,28-trimethyl-21,27-dioxa-1,5,7,8-tetraazahexacyclo[26.2.2.1^6,9.1^10,14.0^2,7.0^15,20]tetratriaconta-2,4,6(34),8,10(33),11,13,15(20),16,18-decaen-3-yl]acetic acid]",29
12,"COc1ccc2c(c1)-c1cccc(c1)-c1cc3nc(C)c([C@H](OC(C)(C)C)C(=O)O)c(n3n1)N1CCC(C)(CC1)OCCCC[C@H](C)O2 [Example 8, (2S)-2-(tert-Butoxy)-2-[(22S)-17-methoxy-4,22,28-trimethyl-21,27-dioxa-1,5,7,8-tetraazahexacyclo[26.2.2.1^6,9.1^10,14.0^2,7.0^15,20]tetratriaconta-2,4,6(34),8,10(33),11,13,15(20),16,18-decaen-3-yl]acetic acid]",5
13,"Cc1nc2cc3nn2c(c1[C@H](OC(C)(C)C)C(=O)O)N1CCC(C)(CC1)OC/C=C/[C@H](C)Oc1cc(F)ccc1-c1cccc-3c1 [Example 9, (2S)-2-(tert-Butoxy)-2-[(23E)-18-fluoro-4,22,27-trimethyl-21,26-dioxa-1,5,7,8-tetraazahexacyclo[25.2.2.1^6,9.1^10,14.0^2,7.0^15,20]tritriaconta-2,4,6(33),8,10(32),11,13,15(20),16,18,23-undecaen-3-yl]acetic acid]",6
14,"Cc1nc2cc3nn2c(c1[C@H](OC(C)(C)C)C(=O)O)N1CCC(C)(CC1)OCCC[C@H](C)Oc1cc(F)ccc1-c1cccc-3c1 [Example 10, (2S)-2-(tert-Butoxy)-2-[(22S)-18-fluoro-4,22,27-trimethyl-21,26-dioxa-1,5,7,8-tetraazahexacyclo[25.2.2.1^6,9.1^10,14.0^2,7.0^15,20]tritriaconta-2,4,6(33),8,10(32),11,13,15(20),16,18-decaen-3-yl]acetic acid]",11
15,"Cc1ccc2c(c1F)-c1cccc(c1)-c1cc3nc(C)c([C@H](OC(C)(C)C)C(=O)O)c(n3n1)N1CCC(C)(CC1)OC/C=C/[C@H](C)O2 [Example 11, (2S)-2-(tert-Butoxy)-2-[(22S,23E)-16-fluoro-4,17,22,27-tetramethyl-21,26-dioxa-1,5,7,8-tetraazahexacyclo[25.2.2.1^6,9.1^10,14.0^2,7.0^15,20]tritriaconta-2,4,6(33),8,10(32),11,13,15(20),16,18,23-undecaen-3-yl]acetic acid]",3
16,"Cc1ccc2c(c1F)-c1cccc(c1)-c1cc3nc(C)c([C@H](OC(C)(C)C)C(=O)O)c(n3n1)N1CCC(C)(CC1)OCCC[C@H](C)O2 [Example 12, (2S)-2-(tert-Butoxy)-2-[(22S)-16-fluoro-4,17,22,27-tetramethyl-21,26-dioxa-1,5,7,8-tetraazahexacyclo[25.2.2.1^6,9.1^10,14.0^2,7.0^15,20]tritriaconta-2,4,6(33),8,10(32),11,13,15(20),16,18-decaen-3-yl]acetic acid]",3
17,"Cc1nc2cc3nn2c(c1[C@H](OC(C)(C)C)C(=O)O)N1CCC(C)(CC1)OC/C=C/[C@H](C)Oc1ccc(F)cc1-c1cccc-3c1 [Example 13, (2S)-2-(tert-Butoxy)-2-[(22S,23E)-17-fluoro-4,22,27-trimethyl-21,26-dioxa-1,5,7,8-tetraazahexacyclo[25.2.2.1^6,9.1^10,14.0^2,7.0^15,20]tritriaconta-2,4,6(33),8,10(32),11,13,15(20),16,18,23-undecaen-3-yl]acetic acid]",4
18,"Cc1nc2cc3nn2c(c1[C@H](OC(C)(C)C)C(=O)O)N1CCC(C)(CC1)OCCC[C@H](C)Oc1ccc(F)cc1-c1cccc-3c1 [Example 14, (2S)-2-(tert-Butoxy)-2-[(22S)-17-fluoro-4,22,27-trimethyl-21,26-dioxa-1,5,7,8-tetraazahexacyclo[25.2.2.1^6,9.1^10,14.0^2,7.0^15,20]tritriaconta-2,4,6(33),8,10(32),11,13,15(20),16,18-decaen-3-yl]acetic acid]",9
19,"Cc1ccc2c(c1)O[C@@H](C)/C=C/COC1(C)CCN(CC1)c1c([C@H](OC(C)(C)C)C(=O)O)c(C)nc3cc(nn13)-c1cccc-2c1 [Example 15, (2S)-2-(tert-Butoxy)-2-[(22S,23E)-4,18,22,27-tetramethyl-21,26-dioxa-1,5,7,8-tetraazahexacyclo[25.2.2.1^6,9.1^10,14.0^2,7.0^15,20]tritriaconta-2,4,6(33),8,10(32),11,13,15(20),16,18,23-undecaen-3-yl]acetic acid]",8
20,"Cc1ccc2c(c1)O[C@@H](C)CCCOC1(C)CCN(CC1)c1c([C@H](OC(C)(C)C)C(=O)O)c(C)nc3cc(nn13)-c1cccc-2c1 [Example 16, (2S)-2-(tert-Butoxy)-2-[(22S)-4,18,22,27-tetramethyl-21,26-dioxa-1,5,7,8-tetraazahexacyclo[25.2.2.1^6,9.1^10,14.0^2,7.0^15,20]tritriaconta-2,4,6(33),8,10(32),11,13,15(20),16,18-decaen-3-yl]acetic acid]",8
